Here are results for 30 molecules from PubChem BioAssay (NCI).

Each structure is given as a SMILES string. Values joined by “and” are separate entries in the source; they are usually repeats but may differ in a detail not shown here. Identical values can stand only once.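 Protocol summary: plate cells (96-well), add compound at 5 concentrations, incubate 48 h, interpolate endpoints linearly. Abbreviation: GI50, concentration required for 50% inhibition of growth. TGI denotes the concentration required for complete inhibition of growth.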

Holding throughout (experiment): NCI tumour cell line growth inhibition, 48 h
The test system of test [1] is DLD-1 colon.
In test [2] the test system is DMS 114 small cell lung.
Test [3] has as its system DMS 273 small cell lung.
Test [4] relates to HOP-18 NSCLC.
For test [5], the system named is KM20L2 colon.
In test [6] the test system is LXFL 529 NSCLC.
Test [7] deals with MDA-N.
Test [8] deals with RXF-631 renal.
Test [9] concerns XF 498 CNS.

For `CC(C)C1=Cc2ccc3c(c2C(=O)C1=O)CCCC3`, the TGI in test [1] amounted to 3.31 µM; in test [2] it was 3.61 µM; in [3] it was 13.6 µM; in [4], 8.96 µM; in test [5] it was 42.7 µM; in test [6] it was 2.52 µM. For the same molecule, the TGI in [7] was found to be 19.3 µM; in test [8], 25.1 µM; in test [9], 5.53 µM.
As for `CCNCC(=O)Nc1ccc2c(c1)C(=O)c1ccc(NC(=O)CNCC)cc1C2=O`, the TGI in test [7] was 18.9 µM.
As to `C=CCCn1nc(-c2ccccc2)oc1=O`, the TGI in test [1], in test [3], in test [4], in test [5], in test [6] and in test [9] was > 100 µM throughout.
As for `CC(=O)OCC1OC(SC2=N/C(=C\c3ccc(Br)s3)C(=O)N2c2ccccc2)C(OC(C)=O)C(OC(C)=O)C1OC(C)=O` (stereo not given), the TGI in test [7] was > 100 µM.
With `CN(C)CC1(C)CC/C(=C\c2ccc(Cl)cc2)C1=O` (stereo not given), the TGI in test [1] is 85.7 µM; in [2], 56.2 µM; in test [3], 50.7 µM; in [4], > 100 µM; in test [5], 35.7 µM; in [6] it was 40.8 µM. Moreover, the TGI in test [9] is > 100 µM.
Regarding `COc1cccc(/C=C2\CCC(CN(C)C)C2=O)c1` (stereo not given), the TGI in [1] was 7.81 µM; in test [2] it was 42.4 µM; in test [3], 26.2 µM; in [4], 33.2 µM; in [5], 31.7 µM; in test [6], 6.45 µM. Moreover, the TGI amounted to 16.8 µM in test [7], 20.2 µM in [8] and 33.6 µM in test [9].
For the molecule `C[C@@H]1CC[C@@]2(C)OC(c3ccccc3)[C@H](CO)N2C1=O` (stereo not given in full), the TGI in [1], in [2], in test [3], in test [4], in test [5] and in test [9] was > 100 µM each time.
With `C=CC12CCCCC1CC(C(=O)OC)=C(O)C2` (stereo not given), the TGI in test [1], in test [2], in test [3], in [4], in test [5] and in test [6] was > 100 µM throughout. The TGI in [8] and in test [9] was > 100 µM throughout.
For `CC1OC(n2cc(F)c(=O)[nH]c2=O)CCC1=O` (stereo not given), the TGI in [1], in test [2], in test [3], in test [4], in test [5] and in test [6] was > 100 µM throughout. In [8], the TGI is > 100 µM.
Regarding `O/N=C1/CCCC/C1=C\c1ccc(Cl)c(Cl)c1`, the TGI in [1] is > 100 µM; in test [2], 59.8 µM; in [3], 63.1 µM; in test [4] it was 59.8 µM; in test [5] it was 43.4 µM; in test [6], 54.4 µM. The same molecule showed a TGI in test [9] of 46.4 µM.
As to `CC(=O)N1c2ccccc2N(C(C)=O)C1c1ccc(C2N(C(C)=O)c3ccccc3N2C(C)=O)[nH]1`, the TGI in [2], in test [3], in test [5], in test [6], in test [8] and in [9] was > 100 µM throughout.
For the molecule `C=C(C)CC(C(=O)O)c1ccc(C)cc1` (stereo not given), the TGI in test [1], in [2], in test [3], in test [4], in test [5] and in [9] was > 100 µM in each case.
Take `O=CCCn1[nH]c(=O)ccc1=O`: the TGI in test [1], in test [2], in test [3] and in test [5] was > 100 µM each time.
With `NC1=NN(c2ccccc2)C(=O)C1C(=O)C(=O)Nc1ccccc1` (stereo not given), the TGI in [1], in test [2], in test [3], in test [4], in test [5] and in [6] was > 100 µM each time. Further, the TGI in [9] is > 100 µM.
For `COc1ccc(/C=C/c2onc3c(=O)n(C)nc(-c4ccccc4)c23)cc1`, the TGI in [1], in test [2], in [3], in [4], in test [5] and in test [6] was > 100 µM each time. Besides, the TGI in [9] was > 100 µM.
On to `O=CN/C=C/c1ccccc1`, for which the TGI in [1], in test [3], in test [4], in test [5], in test [6] and in test [8] was > 100 µM each time.
As for `C[C@]12Cc3conc3C(O)=C1CC[C@@H]1C2CC[C@@]2(C)C1CC[C@@H]2O` (stereo not given in full), the TGI in [3] was 25.2 µM; in test [4], > 100 µM; in test [5], > 100 µM; in test [6] it was 33.5 µM; in [9], 33.9 µM.
On to `CCCCCCCCCCCCCCCCc1c(C(=O)OC)nc(NC#N)[nH]c1=O`, for which the TGI in test [1], in test [2], in test [4], in test [5], in [6] and in test [8] was > 25 µM each time. Also, in test [9], the TGI is > 25 µM.
Consider `COC(=O)/C=C1\CCC2[C@@H](C(=O)CC3[C@]2(C)CCC[C@@]3(C)C(=O)OC)C1C` (stereo not given in full), for which the TGI in [1] was > 100 µM; in test [2], 37.2 µM; in test [3], 52.4 µM; in test [4], 79.4 µM; in [5], 80.3 µM; in [6], 23.7 µM. The results for the TGI in test [8] and in test [9] were 63.1 µM and 28 µM, respectively.
`CCOC(=O)C1CC(=O)C=C2CCCCC21` (stereo not given): the TGI in [1], in [2], in test [3], in test [6], in [8] and in test [9] was > 100 µM throughout.
Take `CCOC(=O)NC(=O)c1cn(CCSCCOC(=O)NCCCCCCNC(=O)OCCSCCn2cc(C(=O)NC(=O)OCC)c(=O)n(C)c2=O)c(=O)n(C)c1=O`: the TGI in test [1] is > 100 µM; in test [4], 1.02 µM; in test [5] it was > 100 µM; in test [6], > 100 µM; in [8], 64 µM; in [9] it was 85.4 µM.
As to `Cn1cnc([N+](=O)[O-])c1Sc1n[nH]c(-c2ccc(Cl)cc2)n1`, the TGI in [1] turned out to be 52.5 µM; in [2], 49.7 µM; in test [3], 37.3 µM; in test [4], 8.3 µM; in [6] it was 36.7 µM; in test [8] it was 59 µM. In addition, the TGI in test [9] amounted to 27.6 µM.
For the molecule `N#CC(Sc1ccccc1)C(N)=O` (stereo not given), the TGI in test [1], in [2], in test [3], in [4], in test [5] and in test [6] was > 100 µM throughout. Besides, the TGI in test [8] and in test [9] was > 100 µM each time.
Regarding `O=S1Nc2cccc(C(F)(F)F)c2S1` (stereo not given), the TGI in test [1] was > 100 µM; in [2], 83.2 µM; in [3], > 100 µM; in test [4], > 100 µM; in [5], > 100 µM; in test [6], > 100 µM. The molecule further returned a TGI in [9] of 98.7 µM.
For `Nc1nc(-c2cccnc2)cc(-c2cc(-c3cccnc3)nc(N)n2)n1`, in test [7], the TGI is > 100 µM.
Take `c1cc[c]([Ge]([O]c2cccc3cccnc23)([c]2ccccc2)[c]2ccccc2)cc1`: the GI50 in [1] is 3.22 µM; in [2], 2.32 µM; in test [3], 3.46 µM; in test [4] it was 1.26 µM; in test [5], 2.59 µM; in test [6], 2.31 µM. The TGI in test [1] was determined as 11.3 µM; in [2], 5.06 µM; in [3], 12.4 µM; in [4] it was 8.37 µM; in test [5] it was 5.97 µM; in test [6] it was 5.27 µM.
As to `O=S(O)O.O=S(O)O.[Co].[NH2-].[NH2-].[NH2-].[NH2-]`, in [7], the GI50 is > 100 µM and the TGI is > 100 µM.
For the molecule `O=C(O)c1cnc2c(ccc3[nH]cccc32)c1=O`, the TGI in test [1], in [2], in test [3], in [4], in [5] and in [6] was > 100 µM throughout.
On to `COc1ccc2cc3c4cc(OC)c(OC)cc4ccn3c2c1`, for which the TGI in test [1], in [2], in [3], in test [4], in test [6] and in test [9] was > 100 µM throughout.
As to `CC(=O)O[C@@H]1c2c(c3c(=O)c4cccc(O)c4c(=O)c=3c2=[N+]=[N-])[C@H](OC(C)=O)[C@@H](OC(C)=O)[C@]1(C)O`, in [7], the GI50 is 0.235 µM; the TGI was 1.05 µM and 0.733 µM.
